Patent US8329865B2, “Antimicrobially active peptides” (priority 2001, dated 2012)
No end group written: not given here.

Columns and labels:
[1] = tested on: S. epidermidis ATCC 12228; format: cell-based, Staphylococcus epidermidis
Description: (§1) Antimicrobial assays. Antimicrobial assays were performed using the CFU assay as previously described (Rieg, S. et al. 2005 J. Immunol. 174:8003-8010, Schittek, B. et al. 2001 Nat. Immunol. 2:1133-1137). The antibacterial activity of DCD-derived peptides and LL-37 was tested against the following bacterial strains: Escherichia coli ATCC 25922, methicillin-susceptible Staphylococcus aureus ATCC 25923 (MSSA), methicillin-resistant Staphylococcus aureus (MRSA; clinical isolate), Staphylococcus epidermidis ATCC 12228, and Pseudomonas aeruginosa ATCC 27853. E. coli ML-35p was generously provided by Robert Lehrer (Department of Medicine, Center for Health Sciences, Los Angeles, Calif.) and cultivated on Luria-Bertani (LB) plates containing 50 μg of ampicillin/ml. This strain constitutively expresses cytoplasmic […] but lacks lactose permease (Lehrer, R. I. et al. 1988 J. Immunol. Methods 108:153-158). The bacterial membrane mutants Staphylococcus aureus mprF and dltA and Staphylococcus epidermidis Δica and the corresponding wild-type strains S. aureus 113 and S. epidermidis 1457 were previously described (Gotz, F. 2002 Mol. Microbiol. 43:1367-1378, Peschel, A. et al. 2001 J. Exp. Med. 193:1067-1076). Bacterial cultures were grown to mid-exponential growth phase and washed three times with 10 mM sodium phosphate buffer-10 mM NaCl (pH 7.0). The bacterial concentration was estimated photometrically at 600 nm. Absorbance of 1.0 corresponded to 8.56×10^8/ml for E. coli; 1×10^8/ml for E. coli ML-35p; 1.97×10^8/ml for S. aureus, MRSA, and the wild-type and membrane mutants of S. aureus and S. epidermidis; and 5.07×10^8/ml for P. aeruginosa.
(§2) After dilution to a concentration of 10^6 CFU/ml, 10-μl portions of the dilutions were incubated at 37° C. for 2 to 4 h with the respective peptide diluted in water in a total volume of 30 μl in 10 mM sodium phosphate buffer-10 mM NaCl (pH 7.0). After incubation, the cells were diluted 1:100 in 10 mM sodium phosphate buffer-10 mM NaCl (pH 7.0), and 90 μl of the diluted bacterial suspension was plated in triplicates on blood agar. Bacterial colonies were counted after incubation for 18 to 24 h at 37° C. The antimicrobial activity was calculated by using [(cell survival after peptide incubation)/(cell survival in buffer without peptide)×100]. The LC90 describes the lethal concentration of the current synthetic peptide in μg/ml or μM that leads to a 90% reduction of CFU compared to the buffer control.
(§3) ^aThe 90% inhibitory concentration (IC90) is the concentration of peptide in μg/ml (or in μM [in parentheses]) able to kill 90% of the microorganisms in 10 mM NaP-10 mM NaCl in a CFU assay compared to the control incubated only in buffer without peptide. ND, not determined.

S. epidermidis Δica = format: cell-based, Staphylococcus epidermidis; conditions: 10 mM NaP-10 mM NaCl, CFU assay
Description: as §1, §2, §3

E. coli ATCC 25922 = format: cell-based, Escherichia coli
Description: as §1, §2, §3

E. coli ML-35p = format: cell-based, Escherichia coli; conditions: 10 mM NaP-10 mM NaCl, CFU assay
Description: as §1, §2, §3

P. aeruginosa ATCC 27853 = format: cell-based, Pseudomonas aeruginosa
Description: as §1, §2, §3

[2] = tested on: S. aureus (MSSA) ATCC 25923; format: cell-based, Staphylococcus aureus
Description: as §1, §2, §3

S. aureus dltA = format: cell-based, Staphylococcus aureus; conditions: 10 mM NaP-10 mM NaCl, CFU assay
Description: as §1, §2, §3

S. aureus mprF = format: cell-based, Staphylococcus aureus; conditions: 10 mM NaP-10 mM NaCl, CFU assay
Description: as §1, §2, §3

[3] = tested on: Escherichia coli, Staphylococcus aureus, Enterococcus faecalis and Candida albicans; experiment: CFU test (colony-forming units), Example 4; format: cell-based; conditions: sodium phosphate buffer, 37° C., 3 h, 4 h or overnight
Description: The antimicrobial effect of said peptides was carried out by a CFU test (test for colony-forming units) as described for the defensins by Valore et al., “Human Beta-Defensin-1: An Antimicrobial Peptide of Urogenital Tissues”, J Clin Invest 101, 1633-1642 (1998).
The test of the novel peptides was carried out with Escherichia coli, Staphylococcus aureus, Enterococcus faecalis and Candida albicans. E. coli was incubated in LB medium, E. faecalis and S. aureus in Columbia medium (Difko, BD Heidelberg) and C. albicans in casein hydrolysate medium (Merck, Darmstadt). The amounts of bacteria and yeasts were determined by photometry. The bacterial strains were incubated to an optical density of […] at 600 nm and the yeast was incubated to an optical density of 0.4-0.6 at 450 nm. The amount of the organisms was determined by plating various dilutions as follows: an OD of 1 at 600 nm is equivalent to 8.2×10^9/ml for E. coli, 1.9×10^10/ml for S. aureus and 9.0×10^9/ml for E. faecalis, and an OD of 1 at […] is equivalent to 1.4×10^8/ml for C. albicans.
The cells were washed twice with 10 mM sodium phosphate buffer (pH 7.4) and diluted to 2-3×10^7 cells/ml (E. coli, E. faecalis), 5.7×10^7 cells/ml (S. aureus) or 5×10^5 cells/ml (C. albicans) in phosphate buffer.
The cells were incubated with various amounts of the peptides in 200 μl of sodium phosphate buffer at 37° C. for 3 h, 4 h or overnight (21-24 h). The cells were diluted 1:10 to 1:100 for the bacteria and 1:500 to 1:5000 for the yeast, and 50 μl, 100 μl and 200 μl were plated on appropriate agar plates. The plates were incubated at 37° C. overnight, and the number of colonies was counted. The antimicrobial effect of the peptides has been stated as percentage of killed cells: [1−(cell survival after incubation with the peptide)/(cell survival after control incubation)]×100.

S. aureus (ATCC 25923) = experiment: TEM and IEM of peptide-treated bacteria; format: cell-based, Staphylococcus aureus
Description: FIG. 10. Morphology of peptide-treated S. aureus. […] As a negative control cells were incubated in buffer without peptide. For the immune-EM, bacteria were incubated with a polyclonal antiserum to DCD-1, and the reactivity was detected by immunogold labeling. Seen is the binding of DCD to the bacterial surface.
TEM and IEM. Liquid cultures of S. aureus (ATCC 25923) cells grown up to mid-logarithmic phase were washed twice in 10 mM sodium phosphate buffer (pH 7.4). […] In parallel, antimicrobial assays with both peptides were performed which confirmed the antibacterial activity of both peptides. For immune electron microscopy (IEM), cells were fixed in PLP and centrifuged, and the resulting bacterial pellet was embedded in 3.5% agarose at 37° C. and cooled on ice. Small parts of agarose blocks were embedded in Lowicryl (Polysciences, Eppelheim, Germany). Ultrathin sections (50 nm) were mounted on Formvar-coated nickel grids and incubated with rabbit anti-DCD, followed by 10-nm gold-conjugated goat anti-rabbit immunoglobulin G (Auroprobe EM; Amersham, Freiburg, Germany). In control samples the primary antibody was omitted. Samples were examined by using a Zeiss 109 transmission electron microscope (Zeiss, Oberkochen, Germany). For transmission EM (TEM) bacterial pellets were fixed in Karnovsky's fixative, postfixed in 1% osmium tetroxide, and embedded in Epon.

Molecule | IC90 [1] | IC90 (S. epidermidis Δica) [µg/mL] | IC90 (E. coli ATCC 25922) | IC90 (E. coli ML-35p) [µg/mL] | IC90 (P. aeruginosa ATCC 27853) | IC90 [2] | IC90 (S. aureus dltA) [µg/mL] | IC90 (S. aureus mprF) [µg/mL] | antimicrobial effect (percentage of killed cells) [3] | morphological changes of S. aureus (transmission EM) (S. aureus (ATCC 25923); 100 μg/ml for 4 h) | localisation of peptide on bacteria (immune-EM) (S. aureus (ATCC 25923); antiserum to DCD-1, immunogold labeling)
LEKGLDGAKKAVGGLGKLGKDAVEDLESVGKGAVHDVKDVLDSVL [LEK-45] | 200 (44) μg/ml | > 200 | >200 (>44) μg/ml | > 200 | >200 (>44) μg/ml | >200 (>44) μg/ml | > 200 | > 200 |  |  | 
SSLLEKGLDGAKKAVGGLGKLGKDAVEDLESVGKGAVHDVKDVLDSVL [DCD-1L] | 10 µg/mL | >200 | 45 µg/mL | 30 | >200 µg/mL | 45 µg/mL | 6 | 50 |  |  | 
YDPEAASAPGSGNPCHEASAAQKENAGEDP [Y-P30, survival promoting peptide Y-P30 with one amino acid replaced, reference compound] |  |  |  |  |  |  |  |  | no appreciable antimicrobial effect |  | 
SSLLEKGLDGAKKAVGGLGKLGK [SSL-23] | 8 µg/mL | >200 | 10 µg/mL |  | >200 µg/mL | 10 µg/mL | 10 | 50 |  |  | 
SSLLEKGLDGAKKAVGGLGKLGKDAVEDL [SSL-29] | 200 (69) μg/ml |  | >200 (>69) μg/ml | > 200 | >200 (>69) μg/ml | >200 (>69) μg/ml |  | 180 |  |  | 
SSLLEKGLDGAKKAVGGLGKLGKDA [SSL-25] | >200 µg/mL |  | 10 µg/mL | 9 | 200 µg/mL | 48 µg/mL | >200 | >200 |  |  | 
SSLLEKGLDGAKKAVGGLGKLGKDAVEDLESVGKGAVHDVKDVLDSV (synthetic fragment of DCD protein) [DCD-1] |  |  |  |  |  |  |  |  | quantity-dependent antimicrobial effect | no signs of cell wall damage. Instead, we observed cellular disintegration | able to bind to the cell surface but is not found in the bacterial cytoplasm
DCD protein: DCD protein comprising the sequence SEQ ID No: 1, 110 amino acid residues (protein, listed as Homo sapiens) MRFMTLLFLTALAGALVCAYDPEAASAPGSGNPCHEASAAQKENAGEDPGLARQAPKPRKQRSSLLEKGLDGAKKAVGGLGKLGKDAVEDLESVGKGAVHDVKDVLDSVL |  |  |  |  |  |  |  |  | toxic |  | 
